Source: the supplement of paper PMC11208160

Assay: recombinant barcode read abundance after kanamycin selection (control-corrected) (log10(CPM+1)); higher = more efficient recombination; sequences stand for … in AGTGCAGAGAAAATCGGCCAGTTTTCTCTGCCTGCAGTCCGCATGCCGT…AGATTTATGCAGCGGACTGCCTTTCTCCCAAAGTGATAAACCGGACAGTATCATGGACCGGTTTTCCCGGTAATCCGTATTTGCAAGGTTGGTTTCACT; site = the 11-nt target
Outline: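 Recombination efficiency was calculated from barcode counts at recombinant junctions, normalized to counts per million, averaged and corrected by the control. Each value is given as log10(CPM+1). The constructs were Gibson-cloned oligos (promoter, target, barcode, J23119-driven first 104 bridge RNA bases) in a vector with the remaining 73 bp and a T7-inducible recombinase, co-electroporated into E. coli with a donor plasmid and plated in duplicate on chloramphenicol/ampicillin LB agar (control) or chloramphenicol/ampicillin/kanamycin with 0.1 mM IPTG.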
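Further: IS621 recombinase and bridge RNA in Escherichia coli cells.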

Sequence: CCTGGGACTTGGGTTCTAACCTGTTGCGC (site CCTGGGACTTC)
- recombinant barcode read abundance (log10): 0.214

Sequence: CCTGGGACTTGGGTTCTAACCTGTTGCGG (site CCTGGGACTAC)
- recombinant barcode read abundance (log10): 0

Sequence: CCTGGGACTTGGGTTCTAACCTGTTGCGG (site CCTGGGACTCC)
- recombinant barcode read abundance (log10): 2.29

Sequence: CCTGGGACTTGGGTTCTAACCTGTTGCGG (site CCTGGGACTGC)
- recombinant barcode read abundance (log10): 0.532

Sequence: CCTGGGACTTGGGTTCTAACCTGTTGCGG (site CCTGGGACTTC)
- recombinant barcode read abundance (log10): 0.474

Sequence: CCTGGGACTTGGGTTCTAACCTGTTGCGT (site CCTGGGACTAC)
- recombinant barcode read abundance (log10): 1.31

Sequence: CCTGGGACTTGGGTTCTAACCTGTTGCGT (site CCTGGGACTCC)
- recombinant barcode read abundance (log10): 0.807

Sequence: CCTGGGACTTGGGTTCTAACCTGTTGCGT (site CCTGGGACTGC)
- recombinant barcode read abundance (log10): 0.178

Sequence: CCTGGGACTTGGGTTCTAACCTGTTGCGT (site CCTGGGACTTC)
- recombinant barcode read abundance (log10): 0.0691

Sequence: CCTGTAGCTTGGGTTCTAACCTGTTGCCT (site CCGGTAACTAG)
- recombinant barcode read abundance (log10): 0.0829

Sequence: CCTGTAGCTTGGGTTCTAACCTGTTGCCT (site CCTGTAGCTAG)
- recombinant barcode read abundance (log10): 1.13

Sequence: CCTTAGCCTTGGGTTCTAACCTGTTGCCT (site CCTTACCCTAG)
- recombinant barcode read abundance (log10): 0.0511

Sequence: CCTTAGCCTTGGGTTCTAACCTGTTGCCT (site CCTTAGCCTAG)
- recombinant barcode read abundance (log10): 0.385

Sequence: CCTTCTACTTGGGTTCTAACCTGTTGCTA (site CCTTCTACTAG)
- recombinant barcode read abundance (log10): 0.0484

Sequence: CCTTCTACTTGGGTTCTAACCTGTTGCTA (site CCTTCTACTTA)
- recombinant barcode read abundance (log10): 0.392

Sequence: CCTTGCTCTTGGGTTCTAACCTGTTGCCT (site CCTTGCTCTAG)
- recombinant barcode read abundance (log10): 0.317

Sequence: CCTTGCTCTTGGGTTCTAACCTGTTGCCT (site CCTTGGACTAG)
- recombinant barcode read abundance (log10): 0.114

Sequence: CCTTGGACTTGGGTTCTAACCTGTTGCAA (site CCTTGGACTTT)
- recombinant barcode read abundance (log10): 0.546

Sequence: CCTTGGACTTGGGTTCTAACCTGTTGCAA (site GCTTGGACTCT)
- recombinant barcode read abundance (log10): 0.0226

Sequence: CCTTGGTCTTGGGTTCTAACCTGTTGCCT (site CCTTGGTCTAG)
- recombinant barcode read abundance (log10): 0.216

Sequence: CCTTGGTCTTGGGTTCTAACCTGTTGCCT (site GCTTGGCCTAG)
- recombinant barcode read abundance (log10): 0.107

Sequence: CCTTTCACTTGGGTTCTAACCTGTTGCCT (site CCTATCCCTAG)
- recombinant barcode read abundance (log10): 0.029

Sequence: CCTTTCACTTGGGTTCTAACCTGTTGCCT (site CCTTTCACTAG)
- recombinant barcode read abundance (log10): 0.228

Sequence: CGAATCGCTTGGGTTCTAACCTGTTGCCT (site CGAATCACTAG)
- recombinant barcode read abundance (log10): 0.374

Sequence: CGAATCGCTTGGGTTCTAACCTGTTGCCT (site CGAATCCCTAG)
- recombinant barcode read abundance (log10): 0.0216

Sequence: CGAATCGCTTGGGTTCTAACCTGTTGCCT (site CGAATCGCTAG)
- recombinant barcode read abundance (log10): 0.994

Sequence: CGAATCGCTTGGGTTCTAACCTGTTGCCT (site CGAATCTCTAG)
- recombinant barcode read abundance (log10): 0.084

Sequence: CGAATCTCTTGGGTTCTAACCTGTTGCCT (site CGAATCACTAG)
- recombinant barcode read abundance (log10): 0.0112

Sequence: CGAATCTCTTGGGTTCTAACCTGTTGCCT (site CGAATCCCTAG)
- recombinant barcode read abundance (log10): 0.221

Sequence: CGAATCTCTTGGGTTCTAACCTGTTGCCT (site CGAATCGCTAG)
- recombinant barcode read abundance (log10): 0

Sequence: CGAATCTCTTGGGTTCTAACCTGTTGCCT (site CGAATCTCTAG)
- recombinant barcode read abundance (log10): 0.616

Sequence: CGAATGTCTTGGGTTCTAACCTGTTGCTG (site CGAATGTCTCA)
- recombinant barcode read abundance (log10): 1.2

Sequence: CGAATGTCTTGGGTTCTAACCTGTTGCTG (site GGTATGTCTCA)
- recombinant barcode read abundance (log10): 0.202

Sequence: CGACTCCCTTGGGTTCTAACCTGTTGCGT (site CGACTCCCTAC)
- recombinant barcode read abundance (log10): 1.14

Sequence: CGACTCCCTTGGGTTCTAACCTGTTGCGT (site GTCAAGTCTGA)
- recombinant barcode read abundance (log10): 0.391

Sequence: CGACTGTCTTGGGTTCTAACCTGTTGCCT (site AAGTACACTCA)
- recombinant barcode read abundance (log10): 0.0207

Sequence: CGACTGTCTTGGGTTCTAACCTGTTGCCT (site CGACTGTCTAG)
- recombinant barcode read abundance (log10): 1.92

Sequence: CGAGAACCTTGGGTTCTAACCTGTTGCCT (site AGAGAACCTAG)
- recombinant barcode read abundance (log10): 0.0999

Sequence: CGAGAACCTTGGGTTCTAACCTGTTGCCT (site CGAGAACCTAG)
- recombinant barcode read abundance (log10): 1.67

Sequence: CGAGAACCTTGGGTTCTAACCTGTTGCCT (site GGAGAACCTAG)
- recombinant barcode read abundance (log10): 0.0316

Sequence: CGAGAACCTTGGGTTCTAACCTGTTGCCT (site TGAGAACCTAG)
- recombinant barcode read abundance (log10): 0.12

Sequence: CGAGCAACTTGGGTTCTAACCTGTTGCTT (site CGAGCAACTAA)
- recombinant barcode read abundance (log10): 0.0517

Sequence: CGAGCAACTTGGGTTCTAACCTGTTGCTT (site CGTGTAACTAA)
- recombinant barcode read abundance (log10): 0.181

Sequence: CGAGCTCCTTGGGTTCTAACCTGTTGCAT (site CGAGCTCCTAA)
- recombinant barcode read abundance (log10): 0.0507

Sequence: CGAGCTCCTTGGGTTCTAACCTGTTGCAT (site CGAGCTCCTAC)
- recombinant barcode read abundance (log10): 0.154

Sequence: CGAGCTCCTTGGGTTCTAACCTGTTGCAT (site CGAGCTCCTAG)
- recombinant barcode read abundance (log10): 0.425

Sequence: CGAGCTCCTTGGGTTCTAACCTGTTGCAT (site CGAGCTCCTAT)
- recombinant barcode read abundance (log10): 1.86

Sequence: CGAGCTCCTTGGGTTCTAACCTGTTGCCC (site CGAGCTCCTGG)
- recombinant barcode read abundance (log10): 0.591

Sequence: CGAGCTCCTTGGGTTCTAACCTGTTGCCC (site GGAGCTCCTTG)
- recombinant barcode read abundance (log10): 0.512

Sequence: CGAGCTCCTTGGGTTCTAACCTGTTGCTT (site CGAGCTCCTAA)
- recombinant barcode read abundance (log10): 0.324

Sequence: CGAGCTCCTTGGGTTCTAACCTGTTGCTT (site CGAGCTCCTAC)
- recombinant barcode read abundance (log10): 0.0191

Sequence: CGAGCTCCTTGGGTTCTAACCTGTTGCTT (site CGAGCTCCTAG)
- recombinant barcode read abundance (log10): 1.1

Sequence: CGAGCTCCTTGGGTTCTAACCTGTTGCTT (site CGAGCTCCTAT)
- recombinant barcode read abundance (log10): 0.337

Sequence: CGAGGGGCTTGGGTTCTAACCTGTTGCCT (site CGAGGGACTAG)
- recombinant barcode read abundance (log10): 0.127

Sequence: CGAGGGGCTTGGGTTCTAACCTGTTGCCT (site CGAGGGCCTAG)
- recombinant barcode read abundance (log10): 0.0526

Sequence: CGAGGGGCTTGGGTTCTAACCTGTTGCCT (site CGAGGGGCTAG)
- recombinant barcode read abundance (log10): 0.369

Sequence: CGAGGGGCTTGGGTTCTAACCTGTTGCCT (site CGAGGGTCTAG)
- recombinant barcode read abundance (log10): 0.35

Sequence: CGATAGCCTTGGGTTCTAACCTGTTGCCT (site AGATAGCCTAG)
- recombinant barcode read abundance (log10): 0.024

Sequence: CGATAGCCTTGGGTTCTAACCTGTTGCCT (site CGATAGCCTAG)
- recombinant barcode read abundance (log10): 0.643

Sequence: CGATAGCCTTGGGTTCTAACCTGTTGCCT (site GGATAGCCTAG)
- recombinant barcode read abundance (log10): 0.132

Sequence: CGATAGCCTTGGGTTCTAACCTGTTGCCT (site TGATAGCCTAG)
- recombinant barcode read abundance (log10): 0

Sequence: CGATCTACTTGGGTTCTAACCTGTTGCAG (site AAGGGGCCTAG)
- recombinant barcode read abundance (log10): 0.23

Sequence: CGATCTACTTGGGTTCTAACCTGTTGCAG (site CGATCTACTCT)
- recombinant barcode read abundance (log10): 0.0308

Sequence: CGATTAACTTGGGTTCTAACCTGTTGCCT (site CGATTAACTAG)
- recombinant barcode read abundance (log10): 0.139

Sequence: CGATTAACTTGGGTTCTAACCTGTTGCCT (site CGATTACCTAG)
- recombinant barcode read abundance (log10): 0.361

Sequence: CGATTAACTTGGGTTCTAACCTGTTGCCT (site CGATTAGCTAG)
- recombinant barcode read abundance (log10): 0.107
